Laboratory results from US11673947B2, “Target tissue-specific antigen-binding molecule” (Chugai Seiyaku Kabushiki Kaisha, priority 2012, dated 2023).

Assays:
hIL-6R = target: T1, hIL-6R (Homo sapiens, UniProt P08887); test: IgG ELISA, binding to hIL-6R in mouse serum with or without kynurenine; settings: mouse serum with or without kynurenine
T1 sequence (P08887 20-355 limits assumed): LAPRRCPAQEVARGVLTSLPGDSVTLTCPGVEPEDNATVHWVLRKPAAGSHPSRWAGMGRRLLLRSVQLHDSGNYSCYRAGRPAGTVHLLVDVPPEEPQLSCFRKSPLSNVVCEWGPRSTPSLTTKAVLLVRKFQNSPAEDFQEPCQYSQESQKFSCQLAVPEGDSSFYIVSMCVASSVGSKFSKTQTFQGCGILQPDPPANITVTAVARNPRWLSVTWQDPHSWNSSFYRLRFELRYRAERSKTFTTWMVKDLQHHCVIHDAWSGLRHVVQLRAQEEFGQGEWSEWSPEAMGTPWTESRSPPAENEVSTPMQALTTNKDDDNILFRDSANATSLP
Description: As described in Example 14, antibody 6RNMSC1-2_F02 which has antigen-binding activity in the presence of kynurenine, and the known anti-hIL-6R antibody MRA were subjected to ELISA under the two conditions described in Table 20. The antigen used was biotin-labeled hIL-6R.
First, a StreptaWell 96 microtiter plate (Roche) was coated at room temperature for one hour or more with 100 μl of PBS containing the biotin-labeled antigen. After washing with Wash buffer to remove unbound antigen from the plate, each well was blocked for one hour or more with 250 μl of Blocking Buffer. After Blocking Buffer was removed from each well, each of the purified IgGs was prepared to 2.5 μg/ml under condition 2 shown in Table 20, and aliquoted at 100 μl into the plate. The plate was allowed to stand at room temperature for one hour to allow binding of each IgG to the antigen in each well. After washing with Wash Buffer containing 100 μM kynurenine, an HRP-conjugated anti-human IgG antibody (BIOSOURCE) diluted with Sample Buffer containing kynurenine was added to each well. The plate was incubated for one hour. Following wash with Wash Buffer containing kynurenine, the TMB single solution (ZYMED) was added to each well. The chromogenic reaction in the solution of each well was terminated by adding sulfuric acid. Then, the developed color was assessed by measuring absorbance at 450 nm.

BaF/hIL-6R cells = test: Flow cytometry, binding to membrane-type hIL-6R on BaF/hIL-6R cells; type: cell-based; settings: with and without 100 μM kynurenine
Description: 6RNMSC1-2_F02 antibody which has an antigen-binding activity in the presence of kynurenine as described in Example 14 was assessed for its binding to soluble hIL-6R. As a first step in assessing the ADCC activity of 6RNMSC1-2_F02 to hIL-6R-expressing cells, 6RNMSC1-2_F02 was evaluated as to whether it has the ability to bind to membrane-type hIL-6R expressed in hIL-6R-expressing cells. Specifically, the binding of 6RNMSC1-2_F02 to cells of the BaF/hIL-6R line (WO2012/073992) was assayed and analyzed using a flow cytometer. An appropriate number of BaF/hIL-6R cells were prepared and blocked with PBS containing 2% FBS on ice for one hour or more. Supernatant was removed from the blocked cells by centrifugation, and 100 μl of 6RNMSC1-2_F02 or the control antibody MRA (the heavy chain and light chain sequences are shown in SEQ ID NOs: 92 and 93, respectively) was added under two conditions: in the presence or absence of a final concentration of kynurenine at 100 μM. In this step, the antibodies were contacted with cell-membrane hIL-6R on ice for 30 minutes. […] Then, in the presence or absence of kynurenine, the complex was contacted with a secondary antibody (Beckman Coulter IM1627) that recognizes the antibody constant region. […] The binding of 6RNMSC1-2_F02 to the prepared cells was assayed and analyzed using the BD FACS cant II Flow Cytometer (BD).

IL-6 [1] = target: T2, IL-6 (Homo sapiens, UniProt P05231); test: Biacore T200, interaction between IL-6 and kynurenine; type: binding; parameters: purchased Kamakura Techno-Science, Inc; settings: kynurenine at a maximal concentration of 800 nmol/l, about 5000 RU IL-6 immobilized, 25° C.
Description: The interaction between IL-6 (Kamakura Techno-Science, Inc.) and kynurenine was analyzed using Biacore T200 (GE Healthcare). Sensor chip CM5 (GE Healthcare) was immobilized with about 5000 RU of IL-6 by amine coupling, and 800, 400, 200, 100, 50, or 25 nmol/l kynurenine was allowed to interact with IL-6. The running buffer used was 10 mmol/l ACES, 150 mmol/l NaCl, 0.05% (w/v) Tween20, pH 7.4. All measurements for the interaction described above were carried out at 25° C. Kynurenine was diluted using the running buffer.
About 5000 RU of IL-6 was immobilized in the above-described experiment. The molecular weights of IL-6 and kynurenine were about 20000 g/mol and about 200 g/mol, respectively. Thus, at maximum about 50 RU of kynurenine was expected to interact.

IL-6 [2] = target: T2, IL-6; type: binding; parameters: purchased Kamakura Techno-Science, Inc; settings: estimated
Description: Using Biacore T200 (GE Healthcare), A11 was analyzed for its interaction with human IL-6 (Kamakura Techno-Science, Inc.) in antigen-antibody reaction. Sensor chip CM5 (GE Healthcare) was immobilized with an appropriate amount of protein A/G (Invitrogen) by amine coupling. Antibodies of interest were captured by the chip to allow interaction to IL-6 as an antigen. The two types of running buffers used were 10 mmol/1 ACES, 150 mmol/l NaCl, 0.05% (w/v) Tween20, 100 μmol/l kynurenine, pH 7.4, and 10 mmol/1 ACES, 150 mmol/l NaCl, 0.05% (w/v) Tween20, pH 7.4. The interaction with IL-6 as an antigen was assessed at 37° C. The buffer used to dilute IL-6 was the same running buffer as described above.
A diluted solution of human IL-6 and a running buffer as a blank were injected at a flow rate of 5 μl/min for three minutes to allow interaction of human IL-6 with A11 captured on the sensor chip. […] The dissociation constant KD (M) of A11 was calculated for human IL-6 based on the association rate constant ka (1/Ms) and dissociation rate constant kd (1/s), both of which are kinetic parameters calculated from the sensorgram obtained by the measurement. Each parameter was calculated using the Biacore T200 Evaluation Software (GE Healthcare).
Then, the effect of kynurenine concentration on antigen-antibody reaction between A11 and human IL-6 was assessed using Biacore T200 (GE Healthcare). […]

T2 sequence (P05231 30-212): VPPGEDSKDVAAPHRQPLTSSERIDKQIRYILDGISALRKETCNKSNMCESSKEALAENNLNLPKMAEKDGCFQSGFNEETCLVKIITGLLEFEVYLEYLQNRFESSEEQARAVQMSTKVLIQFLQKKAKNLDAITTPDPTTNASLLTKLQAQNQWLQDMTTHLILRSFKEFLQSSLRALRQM

## MRA: known anti-human IL-6R antibody; SEQ ID NOs: 92 and 93 [reference compound]
hIL-6R
  absorbance, effect of kynurenine: the same regardless of the presence or absence of kynurenine
BaF/hIL-6R cells
  fluorescence (binding to membrane-type hIL-6R): detectable regardless of the presence or absence of kynurenine

## Nc1ccccc1C(=O)C[C@H](N)C(=O)O [kynurenine]
IL-6 [1]
  interaction with IL-6: not detectable
IL-6 [2]
  KD of kynurenine for formation of the complex consisting of A11, IL-6, and kynurenine: several tens nM to several nM
